Tests used:
[1] = Stability of 99mTc complexes in reaction mixture and after isolation in PBS (RP-HPLC); assay type: physicochemical
Method: The stability of complexes 5b and 7b was studied in their reaction mixture and after isolation by HPLC for up to 24 h.
Stability of ^99mTc complexes in the reaction mixture: Samples of the ^99mTc complexes’ reaction mixture were stored at room temperature for up to 24 h. At 1, 6, and 24 h intervals, 100 μL of each sample was removed and analyzed by RP-HPLC.
Stability of isolated ^99mTc complexes: Purification and isolation of 5b and 7b complexes were performed by injection of the reaction mixture into RP-HPLC and isolation of the eluted compounds’ peaks, corresponding to the elution time of each complex. Followingly, 0.1 M PBS buffer solution (900 µL) was added to a vial containing 100 µL (50–120 MBq) of the isolated technetium-99m complex. The sample was incubated at 37 °C for up to 24 h and analyzed by RP-HPLC at 1, 6, and 24 h intervals.

[2] = Biodistribution in healthy Swiss Albino mice after intravenous injection; assay type: in vivo; settings: i.v.
Method: The pharmacokinetic profile of complexes 5b and 7b was evaluated in Swiss Albino healthy male mice at 5, 60, and 240 min post intravenous injection. Table 4 presents the results of the biodistribution studies expressed as % Injected Dose (ID)/g ± Standard Deviation (±SD). […] The high lipophilicity characterizing both complexes justifies the rapid hepatobiliary excretion, given the decreasing activity in the liver and the increasing amount of radioactivity in the intestines. Complex 5b presented faster clearance and elimination in the intestines at 60 min p.i. 34.05% of the radioactivity excreted, compared to 29.89% at 240 min p.i. of complex 7b. Radioactivity in the urine remained low in general, however, the lower logD7.4 value of complex 7b explains the relatively higher activity in the urines (7.88 ± 0.71%) as it is slightly more hydrophilic than 5b. Moreover, the low uptake in the brain indicates almost no blood-brain barrier penetration, although the complexes have favorable physicochemical characteristics.
All the biodistribution experiments were carried out in compliance with the national laws and European protocols (2010/63/EU) related to the conduct of animal experimentation. Nine healthy Swiss Albino mice (male, 30 ± 3 g), divided into three groups of three, were injected with the HPLC-purified 5b or 7b complex in saline with 10% EtOH (0.1 mL, ~75 kBq) through the tail vein. For each group, the animals were sacrificed by cardiectomy under slight ether anesthesia 5, 60, and 240 min after the injection. The organs of interest were excised, weighed, and counted in an automatic gamma counter. The bladder and excreted urine were not weighed. The stomach and intestines were not emptied of food contents prior to radioactivity measurements. The percentage of injected dose per organ (%ID/organ) was calculated by comparison of sample radioactivity to standard solutions containing 10% of the injected dose. The calculation for blood and muscle was based on measured activity, sample weight, and body composition data (considering that blood and muscle comprise 7 and 43% of body weight). The percentage of injected dose per gram (%ID/g) was calculated by dividing the %ID/organ by the weight of the organ or tissue.

Question: For `O=C([O-])CN(CCCCCC(=O)Nc1ccc2ncnc(Nc3cccc(Br)c3)c2c1)Cc1ccccn1.[99Tc+].[C-]#[O+].[C-]#[O+].[C-]#[O+]` [Compound 5b, fac-[^99mTc(NNO)(CO)3]], which “%RCP in PBS for 24 h” value ([1]; 0.1 M PBS, 37 °C, 24 h) is on record?
Answer: 99 ± 2%

Question: And the “Stability in reaction mixture and after isolation by HPLC” value ([1]; up to 24 h, room temperature or 37 °C)?
Answer: No decomposition

Question: What about the “In vivo stability (low spleen and stomach radioactivity; no oxidation to pertechnetate/TcO2)” value [2] of the same molecule?
Answer: stable in vivo

Question: What about the “Blood %Injected Dose/g” value ([2]; 5 min) of the same molecule?
Answer: 0.85 ± 0.23 %Injected Dose/g

Question: What about the “Brain %Injected Dose/g” value ([2]; 5 min) of the same molecule?
Answer: 0.05 ± 0.02 %Injected Dose/g

Question: And the “Heart %Injected Dose/g” value ([2]; 5 min)?
Answer: 0.80 ± 0.12 %Injected Dose/g

Question: And the “Intestines %Injected Dose/g” value ([2]; 5 min)?
Answer: 9.22 ± 2.19 %Injected Dose/g

Question: What about the “Kidneys %Injected Dose/g” value ([2]; 5 min) of the same molecule?
Answer: 8.49 ± 1.33 %Injected Dose/g

Question: And the “Liver %Injected Dose/g” value ([2]; 5 min)?
Answer: 27.68 ± 2.32 %Injected Dose/g

Question: What about the “Lungs %Injected Dose/g” value ([2]; 5 min) of the same molecule?
Answer: 0.97 ± 0.20 %Injected Dose/g

Question: What about the “Muscle %Injected Dose/g” value ([2]; 5 min) of the same molecule?
Answer: 0.19 ± 0.05 %Injected Dose/g

Question: What about the “Pancreas %Injected Dose/g” value ([2]; 5 min) of the same molecule?
Answer: 0.63 ± 0.09 %Injected Dose/g

Question: And the “Spleen %Injected Dose/g” value ([2]; 5 min)?
Answer: 0.63 ± 0.09 %Injected Dose/g

Question: And the “Stomach %Injected Dose/g” value ([2]; 5 min)?
Answer: 0.72 ± 0.25 %Injected Dose/g

Question: And the “Urine % ID” value ([2]; 5 min)?
Answer: 0.09 ± 0.06 % ID

Question: What about the “Blood %Injected Dose/g” value ([2]; 60 min) of the same molecule?
Answer: 0.14 ± 0.03 %Injected Dose/g

Question: And the “Brain %Injected Dose/g” value ([2]; 60 min)?
Answer: 0.03 ± 0.00 %Injected Dose/g

Question: What about the “Heart %Injected Dose/g” value ([2]; 60 min) of the same molecule?
Answer: 0.13 ± 0.03 %Injected Dose/g

Question: What about the “Intestines %Injected Dose/g” value ([2]; 60 min) of the same molecule?
Answer: 34.05 ± 2.05 %Injected Dose/g

Question: And the “Kidneys %Injected Dose/g” value ([2]; 60 min)?
Answer: 1.28 ± 0.17 %Injected Dose/g

Question: What about the “Liver %Injected Dose/g” value ([2]; 60 min) of the same molecule?
Answer: 1.24 ± 0.24 %Injected Dose/g

Question: And the “Lungs %Injected Dose/g” value ([2]; 60 min)?
Answer: 0.13 ± 0.03 %Injected Dose/g

Question: And the “Muscle %Injected Dose/g” value ([2]; 60 min)?
Answer: 0.08 ± 0.01 %Injected Dose/g

Question: What about the “Pancreas %Injected Dose/g” value ([2]; 60 min) of the same molecule?
Answer: 0.10 ± 0.03 %Injected Dose/g

Question: What about the “Spleen %Injected Dose/g” value ([2]; 60 min) of the same molecule?
Answer: 0.11 ± 0.01 %Injected Dose/g

Question: And the “Stomach %Injected Dose/g” value ([2]; 60 min)?
Answer: 0.64 ± 0.27 %Injected Dose/g

Question: And the “Urine % ID” value ([2]; 60 min)?
Answer: 1.02 ± 0.17 % ID

Question: What about the “Blood %Injected Dose/g” value ([2]; 240 min) of the same molecule?
Answer: 0.08 ± 0.01 %Injected Dose/g

Question: What about the “Brain %Injected Dose/g” value ([2]; 240 min) of the same molecule?
Answer: 0.02 ± 0.00 %Injected Dose/g

Question: What about the “Heart %Injected Dose/g” value ([2]; 240 min) of the same molecule?
Answer: 0.05 ± 0.01 %Injected Dose/g

Question: What about the “Intestines %Injected Dose/g” value ([2]; 240 min) of the same molecule?
Answer: 37.28 ± 3.50 %Injected Dose/g

Question: What about the “Kidneys %Injected Dose/g” value ([2]; 240 min) of the same molecule?
Answer: 0.06 ± 0.01 %Injected Dose/g

Question: What about the “Liver %Injected Dose/g” value ([2]; 240 min) of the same molecule?
Answer: 0.39 ± 0.08 %Injected Dose/g

Question: What about the “Lungs %Injected Dose/g” value ([2]; 240 min) of the same molecule?
Answer: 0.08 ± 0.01 %Injected Dose/g

Question: What about the “Muscle %Injected Dose/g” value ([2]; 240 min) of the same molecule?
Answer: 0.07 ± 0.07 %Injected Dose/g

Question: What about the “Pancreas %Injected Dose/g” value ([2]; 240 min) of the same molecule?
Answer: 0.09 ± 0.00 %Injected Dose/g

Question: And the “Spleen %Injected Dose/g” value ([2]; 240 min)?
Answer: 0.07 ± 0.02 %Injected Dose/g

Question: What about the “Stomach %Injected Dose/g” value ([2]; 240 min) of the same molecule?
Answer: 0.60 ± 0.18 %Injected Dose/g

Question: And the “Urine % ID” value ([2]; 240 min)?
Answer: 1.33 ± 0.14 % ID
